# Assay results: article PMC8909834, “An Orally Bioavailable and Highly Efficacious Inhibitor of CDK9/FLT3 for the Treatment of Acute Myeloid Leukemia” (Cancers, 2022)
# Experiments:
# Assay in all cases: Kinase Hotspot radiolabel assay
# Format in all cases: biochemical
# Settings in all cases: read-out: % Residual Activity
# TRKA = molecular target: T1, TRKA (Homo sapiens, UniProt P04629)
# T1 construct: purchased Reaction Biology Corporation (Kinase HotSpot)
# Outline: (§1)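 Percent inhibition is from a radiometric Hotspot assay at 1 µM compound. The panel spans 369 kinases, and Ki measurement follows for those inhibited over 90%.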
# IKKe/IKBKE = molecular target: T2, IKKe/IKBKE (Homo sapiens, UniProt Q14164)
# T2 construct: purchased Reaction Biology Corporation (Kinase HotSpot)
# T2 sequence (Q14164 whole entry): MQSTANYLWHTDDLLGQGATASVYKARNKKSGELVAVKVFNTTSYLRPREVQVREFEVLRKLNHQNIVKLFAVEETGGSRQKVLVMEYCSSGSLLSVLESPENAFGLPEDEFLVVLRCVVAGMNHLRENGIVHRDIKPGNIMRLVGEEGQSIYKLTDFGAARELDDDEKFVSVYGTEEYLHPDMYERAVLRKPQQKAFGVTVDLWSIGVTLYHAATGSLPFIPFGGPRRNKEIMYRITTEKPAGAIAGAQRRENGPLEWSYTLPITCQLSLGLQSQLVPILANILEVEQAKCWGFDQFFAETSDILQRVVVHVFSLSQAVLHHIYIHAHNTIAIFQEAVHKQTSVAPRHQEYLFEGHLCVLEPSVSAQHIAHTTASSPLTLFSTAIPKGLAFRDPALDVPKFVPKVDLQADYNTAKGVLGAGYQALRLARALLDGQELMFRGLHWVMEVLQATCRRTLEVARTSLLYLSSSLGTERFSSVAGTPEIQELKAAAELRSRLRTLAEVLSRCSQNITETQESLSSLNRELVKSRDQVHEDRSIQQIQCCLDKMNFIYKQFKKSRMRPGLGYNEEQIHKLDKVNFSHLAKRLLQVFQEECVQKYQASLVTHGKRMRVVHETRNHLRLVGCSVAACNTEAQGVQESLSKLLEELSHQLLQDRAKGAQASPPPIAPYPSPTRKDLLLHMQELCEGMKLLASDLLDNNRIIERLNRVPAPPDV
# Outline: as §1
# IRR/INSRR = molecular target: T3, IRR/INSRR (Homo sapiens, UniProt P14616)
# T3 construct: purchased Reaction Biology Corporation (Kinase HotSpot)
# Outline: as §1
# FGFR1 = molecular target: T4, FGFR1 (Homo sapiens, UniProt P11362)
# T4 construct: purchased Reaction Biology Corporation (Kinase HotSpot)
# T4 sequence (P11362 22-822): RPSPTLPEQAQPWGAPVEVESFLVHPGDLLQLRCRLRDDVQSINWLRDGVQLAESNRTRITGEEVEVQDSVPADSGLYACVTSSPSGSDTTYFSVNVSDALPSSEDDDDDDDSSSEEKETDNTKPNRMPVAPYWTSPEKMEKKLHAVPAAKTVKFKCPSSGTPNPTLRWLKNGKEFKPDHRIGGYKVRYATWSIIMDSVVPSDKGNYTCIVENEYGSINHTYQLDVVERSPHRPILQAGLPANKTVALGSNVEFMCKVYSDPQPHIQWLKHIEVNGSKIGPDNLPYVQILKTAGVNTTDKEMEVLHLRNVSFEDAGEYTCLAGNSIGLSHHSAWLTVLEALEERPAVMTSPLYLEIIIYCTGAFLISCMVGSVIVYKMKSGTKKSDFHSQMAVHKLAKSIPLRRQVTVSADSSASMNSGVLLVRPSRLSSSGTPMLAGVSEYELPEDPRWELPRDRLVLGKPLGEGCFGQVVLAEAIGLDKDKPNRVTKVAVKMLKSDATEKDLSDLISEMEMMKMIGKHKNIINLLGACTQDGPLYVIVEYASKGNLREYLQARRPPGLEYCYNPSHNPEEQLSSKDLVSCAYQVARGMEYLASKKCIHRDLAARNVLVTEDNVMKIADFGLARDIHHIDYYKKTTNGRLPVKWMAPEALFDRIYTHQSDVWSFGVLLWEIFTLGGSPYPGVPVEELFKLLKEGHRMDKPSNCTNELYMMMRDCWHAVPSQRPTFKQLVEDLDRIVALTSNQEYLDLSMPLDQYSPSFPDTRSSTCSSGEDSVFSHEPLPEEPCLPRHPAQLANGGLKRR
# Outline: as §1
# PKCnu/PRKD3 = molecular target: T5, PKCnu/PRKD3 (Homo sapiens, UniProt O94806)
# T5 construct: purchased Reaction Biology Corporation (Kinase HotSpot)
# Outline: as §1
# JNK3 = molecular target: T6, JNK3 (Homo sapiens, UniProt P53779)
# T6 construct: purchased Reaction Biology Corporation (Kinase HotSpot)
# Outline: as §1
# MNK2 = molecular target: T7, MNK2 (Homo sapiens, UniProt Q9HBH9)
# T7 construct: purchased Reaction Biology Corporation (Kinase HotSpot)
# Outline: as §1
# MARK3 = molecular target: T8, MARK3 (Homo sapiens, UniProt P27448)
# T8 construct: purchased Reaction Biology Corporation (Kinase HotSpot)
# Outline: as §1
# Aurora C = molecular target: T9, Aurora C (Homo sapiens, UniProt Q9UQB9)
# T9 construct: purchased Reaction Biology Corporation (Kinase HotSpot)
# T9 sequence (Q9UQB9 whole entry): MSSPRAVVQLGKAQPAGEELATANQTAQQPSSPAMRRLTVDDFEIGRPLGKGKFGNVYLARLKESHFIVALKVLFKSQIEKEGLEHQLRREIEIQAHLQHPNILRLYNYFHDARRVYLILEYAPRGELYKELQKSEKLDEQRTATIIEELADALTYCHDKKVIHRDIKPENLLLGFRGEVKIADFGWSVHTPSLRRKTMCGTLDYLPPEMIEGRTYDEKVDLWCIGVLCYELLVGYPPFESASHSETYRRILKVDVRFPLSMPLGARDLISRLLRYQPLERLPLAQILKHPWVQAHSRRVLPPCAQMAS
# Outline: as §1
# CDK1/cyclin A = molecular target: T10, CDK1/cyclin A (Homo sapiens, UniProt P06493)
# T10 construct: purchased Reaction Biology Corporation (Kinase HotSpot)
# Outline: as §1
# ZIPK/DAPK3 = molecular target: T11, ZIPK/DAPK3 (Homo sapiens, UniProt O43293)
# T11 construct: purchased Reaction Biology Corporation (Kinase HotSpot)
# T11 sequence (O43293 whole entry): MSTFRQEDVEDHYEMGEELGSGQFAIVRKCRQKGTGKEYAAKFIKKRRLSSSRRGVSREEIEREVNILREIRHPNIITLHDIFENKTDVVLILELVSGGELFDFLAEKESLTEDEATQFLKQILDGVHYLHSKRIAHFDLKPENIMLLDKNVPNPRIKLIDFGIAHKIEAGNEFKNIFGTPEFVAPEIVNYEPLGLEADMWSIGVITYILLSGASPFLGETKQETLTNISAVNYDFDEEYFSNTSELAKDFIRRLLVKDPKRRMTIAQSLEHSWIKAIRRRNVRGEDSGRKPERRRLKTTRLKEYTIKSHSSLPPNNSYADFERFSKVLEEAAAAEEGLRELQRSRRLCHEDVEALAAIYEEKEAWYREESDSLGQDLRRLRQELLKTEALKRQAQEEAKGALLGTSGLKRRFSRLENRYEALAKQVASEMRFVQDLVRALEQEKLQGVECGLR
# Outline: as §1
# HIPK3 = molecular target: T12, HIPK3 (Homo sapiens, UniProt Q9H422)
# T12 construct: purchased Reaction Biology Corporation (Kinase HotSpot)
# Outline: as §1
# TRKC = molecular target: T13, TRKC (Homo sapiens, UniProt Q16288)
# T13 construct: purchased Reaction Biology Corporation (contract assay)
# T13 sequence (Q16288 32-839): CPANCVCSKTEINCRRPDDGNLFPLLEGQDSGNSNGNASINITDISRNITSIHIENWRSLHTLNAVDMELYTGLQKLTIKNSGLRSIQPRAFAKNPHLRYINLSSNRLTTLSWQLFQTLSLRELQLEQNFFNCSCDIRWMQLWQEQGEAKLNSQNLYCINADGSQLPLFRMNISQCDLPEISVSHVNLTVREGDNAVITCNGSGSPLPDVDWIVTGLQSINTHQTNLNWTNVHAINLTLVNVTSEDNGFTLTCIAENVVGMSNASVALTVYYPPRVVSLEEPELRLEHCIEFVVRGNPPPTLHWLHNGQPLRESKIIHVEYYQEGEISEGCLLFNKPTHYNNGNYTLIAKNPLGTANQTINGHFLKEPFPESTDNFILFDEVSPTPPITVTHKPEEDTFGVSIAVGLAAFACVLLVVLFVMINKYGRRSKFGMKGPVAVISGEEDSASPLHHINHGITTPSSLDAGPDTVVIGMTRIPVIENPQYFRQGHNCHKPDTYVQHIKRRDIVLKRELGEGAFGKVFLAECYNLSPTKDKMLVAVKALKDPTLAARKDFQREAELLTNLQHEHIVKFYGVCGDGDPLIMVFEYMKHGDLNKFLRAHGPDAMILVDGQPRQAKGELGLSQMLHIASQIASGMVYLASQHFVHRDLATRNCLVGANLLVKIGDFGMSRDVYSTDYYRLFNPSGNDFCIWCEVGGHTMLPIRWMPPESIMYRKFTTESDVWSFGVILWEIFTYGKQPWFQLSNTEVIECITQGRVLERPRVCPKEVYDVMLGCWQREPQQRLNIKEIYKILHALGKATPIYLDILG
# Outline: as §1
# KSR1 = molecular target: T14, KSR1 (Homo sapiens, UniProt Q8IVT5)
# T14 construct: purchased Reaction Biology Corporation (Kinase HotSpot)
# Outline: as §1
# CAMK1d = molecular target: T15, CAMK1d (Homo sapiens, UniProt Q8IU85)
# T15 construct: purchased Reaction Biology Corporation (Kinase HotSpot)
# Outline: as §1
# ERK1 = molecular target: T16, ERK1 (Homo sapiens, UniProt P27361)
# T16 construct: purchased Reaction Biology Corporation (Kinase HotSpot)
# Outline: as §1
# BLK = molecular target: T17, BLK (Homo sapiens, UniProt P51451)
# T17 construct: purchased Reaction Biology Corporation (Kinase HotSpot)
# Outline: as §1
# BRK = molecular target: T18, BRK (Homo sapiens, UniProt Q13882)
# T18 construct: purchased Reaction Biology Corporation (Kinase HotSpot)
# Outline: as §1
# NLK = molecular target: T19, NLK (Homo sapiens, UniProt Q9UBE8)
# T19 construct: purchased Reaction Biology Corporation (Kinase HotSpot)
# Outline: as §1
# FYN = molecular target: T20, FYN (Homo sapiens, UniProt P06241)
# T20 construct: purchased Reaction Biology Corporation (Kinase HotSpot)
# T20 sequence (P06241 whole entry): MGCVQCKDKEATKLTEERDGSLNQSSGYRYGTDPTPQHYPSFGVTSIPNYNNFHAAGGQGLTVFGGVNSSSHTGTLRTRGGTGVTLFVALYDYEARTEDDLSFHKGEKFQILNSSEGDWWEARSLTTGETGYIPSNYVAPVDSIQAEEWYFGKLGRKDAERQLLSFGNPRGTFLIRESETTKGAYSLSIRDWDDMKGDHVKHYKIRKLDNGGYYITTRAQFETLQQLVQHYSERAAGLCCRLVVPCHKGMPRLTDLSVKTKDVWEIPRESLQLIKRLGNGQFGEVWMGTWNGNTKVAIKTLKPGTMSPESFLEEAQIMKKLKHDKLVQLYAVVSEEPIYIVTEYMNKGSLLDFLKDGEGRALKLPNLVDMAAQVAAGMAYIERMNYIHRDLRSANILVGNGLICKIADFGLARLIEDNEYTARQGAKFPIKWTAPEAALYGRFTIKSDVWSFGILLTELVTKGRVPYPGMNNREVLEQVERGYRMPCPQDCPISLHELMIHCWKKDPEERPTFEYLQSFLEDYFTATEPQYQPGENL
# Outline: as §1
# RSK1 = molecular target: T21, RSK1 (Homo sapiens, UniProt Q15418)
# T21 construct: purchased Reaction Biology Corporation (Kinase HotSpot)
# Outline: as §1
# DMPK = molecular target: T22, DMPK (Homo sapiens, UniProt Q09013)
# T22 construct: purchased Reaction Biology Corporation (Kinase HotSpot)
# Outline: as §1
# TTBK2 = molecular target: T23, TTBK2 (Homo sapiens, UniProt Q6IQ55)
# T23 construct: purchased Reaction Biology Corporation (Kinase HotSpot)
# Outline: as §1
# TLK1 = molecular target: T24, TLK1 (Homo sapiens, UniProt Q9UKI8)
# T24 construct: purchased Reaction Biology Corporation (Kinase HotSpot)
# Outline: as §1
# ABL1 = molecular target: T25, ABL1 (Homo sapiens, UniProt P00519)
# T25 construct: purchased Reaction Biology Corporation (Kinase HotSpot)
# Outline: as §1
# SRPK1 = molecular target: T26, SRPK1 (Homo sapiens, UniProt Q96SB4)
# T26 construct: purchased Reaction Biology Corporation (Kinase HotSpot)
# T26 sequence (Q96SB4 whole entry): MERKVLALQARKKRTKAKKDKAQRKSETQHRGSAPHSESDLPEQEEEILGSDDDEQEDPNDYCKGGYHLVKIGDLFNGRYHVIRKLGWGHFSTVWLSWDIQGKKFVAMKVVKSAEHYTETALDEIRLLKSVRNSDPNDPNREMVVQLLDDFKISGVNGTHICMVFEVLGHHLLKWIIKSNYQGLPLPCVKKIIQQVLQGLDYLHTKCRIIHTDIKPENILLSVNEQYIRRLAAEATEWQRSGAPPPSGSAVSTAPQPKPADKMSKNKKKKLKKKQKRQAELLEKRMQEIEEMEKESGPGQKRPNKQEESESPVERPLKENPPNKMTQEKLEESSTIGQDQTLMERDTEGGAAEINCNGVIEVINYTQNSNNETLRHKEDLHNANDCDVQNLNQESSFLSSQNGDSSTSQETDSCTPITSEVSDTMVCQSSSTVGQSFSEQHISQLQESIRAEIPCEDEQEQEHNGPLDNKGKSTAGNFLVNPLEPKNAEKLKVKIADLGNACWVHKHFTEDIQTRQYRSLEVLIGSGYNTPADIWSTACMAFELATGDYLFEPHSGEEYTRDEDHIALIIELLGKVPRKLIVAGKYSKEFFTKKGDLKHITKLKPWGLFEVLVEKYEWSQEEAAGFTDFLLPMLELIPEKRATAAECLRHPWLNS
# Outline: as §1
# PEAK1 = molecular target: T27, PEAK1 (Homo sapiens, UniProt Q9H792)
# T27 construct: purchased Reaction Biology Corporation (Kinase HotSpot)
# Outline: as §1
# DYRK3 = molecular target: T28, DYRK3 (Homo sapiens, UniProt O43781)
# T28 construct: purchased Reaction Biology Corporation (Kinase HotSpot)
# Outline: as §1
# T1 sequence (P04629 33-796): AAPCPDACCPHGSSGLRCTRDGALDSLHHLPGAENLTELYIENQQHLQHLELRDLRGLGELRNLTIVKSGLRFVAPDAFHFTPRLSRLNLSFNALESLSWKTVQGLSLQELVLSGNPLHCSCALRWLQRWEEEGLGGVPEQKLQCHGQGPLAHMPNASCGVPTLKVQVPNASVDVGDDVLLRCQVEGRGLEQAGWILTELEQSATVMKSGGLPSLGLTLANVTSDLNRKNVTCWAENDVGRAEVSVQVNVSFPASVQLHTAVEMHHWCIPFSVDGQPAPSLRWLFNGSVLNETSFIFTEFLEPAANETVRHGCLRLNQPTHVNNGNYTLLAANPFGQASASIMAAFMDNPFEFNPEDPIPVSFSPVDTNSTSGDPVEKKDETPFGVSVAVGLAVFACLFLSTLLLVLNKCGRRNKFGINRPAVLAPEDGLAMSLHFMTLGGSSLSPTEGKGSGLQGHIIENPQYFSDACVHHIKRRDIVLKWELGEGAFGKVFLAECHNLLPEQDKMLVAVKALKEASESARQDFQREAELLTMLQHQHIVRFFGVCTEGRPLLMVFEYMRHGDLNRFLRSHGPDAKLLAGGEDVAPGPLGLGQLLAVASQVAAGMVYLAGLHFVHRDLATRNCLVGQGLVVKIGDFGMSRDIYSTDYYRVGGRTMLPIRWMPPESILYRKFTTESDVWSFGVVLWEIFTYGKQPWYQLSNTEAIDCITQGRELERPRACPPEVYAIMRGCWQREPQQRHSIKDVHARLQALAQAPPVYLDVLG
smiles,measurement,setting,value
Cc1cnc(N[C@H]2CC[C@H](N)CC2)nc1-c1cnc2ccc(-c3ccccc3)cn12 [CDDD11-8],remaining activity at 1 µM,TRKA,14.2%
same,remaining activity at 1 µM,IKKe/IKBKE,91.7%
same,remaining activity at 1 µM,IRR/INSRR,101%
same,remaining activity at 1 µM,FGFR1,96.8%
same,remaining activity at 1 µM,PKCnu/PRKD3,35.1%
same,remaining activity at 1 µM,JNK3,81.3%
same,remaining activity at 1 µM,MNK2,83.5%
same,remaining activity at 1 µM,MARK3,37%
same,remaining activity at 1 µM,Aurora C,82.1%
same,remaining activity at 1 µM,CDK1/cyclin A,78%
same,remaining activity at 1 µM,ZIPK/DAPK3,102%
same,remaining activity at 1 µM,HIPK3,125%
same,remaining activity at 1 µM,TRKC,1.95%
same,remaining activity at 1 µM,KSR1,92.3%
same,remaining activity at 1 µM,CAMK1d,87.1%
same,remaining activity at 1 µM,ERK1,97.3%
same,remaining activity at 1 µM,BLK,47.2%
same,remaining activity at 1 µM,BRK,87.4%
same,remaining activity at 1 µM,NLK,83.4%
same,remaining activity at 1 µM,FYN,63.2%
same,remaining activity at 1 µM,RSK1,56.9%
same,remaining activity at 1 µM,DMPK,96.2%
same,remaining activity at 1 µM,TTBK2,93%
same,remaining activity at 1 µM,TLK1,110%
same,remaining activity at 1 µM,ABL1,76.8%
same,remaining activity at 1 µM,SRPK1,94%
same,remaining activity at 1 µM,PEAK1,57.3%
same,remaining activity at 1 µM,DYRK3,23.2%
